# Patent US7648997B2, “Hydroxylamine substituted imidazoquinolines” (Coley Pharmaceutical Group, Inc., priority 2003, dated 2010)
row,melting point,SMILES
1,103 to 105 °C,"CCCc1nc2c(N)nc3ccccc3c2n1CCCONC(=O)C1CC1 [Example 2, N-[3-(4-Amino-2-propyl-1H-imidazo[4,5-c]quinolin-1-yl)propoxy]cyclopropanecarboxamide]"
2,147 to 150 °C,"CCCc1nc2c(N)nc3ccccc3c2n1CCCONC(C)C [Example 130, 1-{3-[(Isopropylamino)oxy]propyl}-2-propyl-1H-imidazo[4,5-c]quinolin-4-amine]"
3,176 to 178 °C,"CCCc1nc2c(N)nc3cc(Br)ccc3c2n1CCCONC(=O)C(C)C [Example 137, N-[3-(4-Amino-7-bromo-2-propyl-1H-imidazo[4,5-c]quinolin-1-yl)propoxy]-2-methylpropanamide]"
4,145 to 148 °C,"CCCc1nc2c(N)nc3ccccc3c2n1CCCON [Example 1, 1-[3-(Aminooxy)propyl]-2-propyl-1H-imidazo[4,5-c]quinolin-4-amine]"
5,125 to 127 °C,"CCCc1nc2c(N)nc(C)c(C)c2n1CCCONC(C)c1ccccc1 (centres unmarked) [Example 129, 6,7-Dimethyl-1-(3-{[(1-phenylethyl)amino]oxy}propyl)-2-propyl-1H-imidazo[4,5-c]pyridin-4-amine]"
6,142 to 144 °C,"CCOCc1nc2c(N)nc3cc(-c4ccccc4)cnc3c2n1CCCONC(C)C [Example 139, 2-(Ethoxymethyl)-1-{3-[(isopropylamino)oxy]propyl}-7-phenyl-1H-imidazo[4,5-c][1,5]naphthyridin-4-amine]"
7,115 to 117 °C,"CCCCc1nc2c(N)nc3ccccc3c2n1CCCCONC(C)C [Example 72, 2-Butyl-1-{4-[(isopropylamino)oxy]butyl}-1H-imidazo[4,5-c]quinolin-4-amine]"
8,169 to 171 °C,"CCCc1nc2c(N)nc3cc(-c4ccccc4)ccc3c2n1CCCONC(=O)C(C)C [Example 138, N-[3-(4-Amino-7-phenyl-2-propyl-1H-imidazo[4,5-c]quinolin-1-yl)propoxy]-2-methylpropanamide]"
